From US10314812B2, “Suspension compositions of physiologically active phenolic compounds and methods of making and using the same” (Humanetics Corporation, priority 2013, dated 2019)

What was measured:
[1] = Particle size analysis by laser diffraction (LA-950, Horiba); assay type: physicochemical; details: for particle size distribution (PSD) after milling: 25% (w/v) genistein in olive oil, nanomilled 60 minutes in YTZ media, initial measurement; for D(0.50) particle size: material as provided by the commercial supplier (DSM), before milling
Description: In the context of the present description, the particle size distribution of a given material is provided in volume diameter as measured in accordance with USP 429 using a laser diffraction particle size analyzer operating in the Mie Scattering Theory diffraction mode and equipped with a suspension dispersion sample chamber (e.g., as available from Horiba Instruments, Irvine, Calif., USA). For purposes of the present description, volume diameter is given as a particle size distribution defined by one or more of D (0.10), D (0.50) and D (0.90). When referred to herein, the term D (0.10) indicates the volume frequency distribution of particles for which 10% of the sample is below the referenced size, the term D (0.50) indicates the volume frequency distribution of particles for which 50% of the sample is below the referenced size, and the term D (0.90) indicates the volume frequency distribution of particles for which 90% of the sample is below the referenced size. In addition to measurement of the particle size distribution via laser diffraction, the results from such particle size analysis and/or the morphology of the particles may be confirmed using known electron microscopy techniques.
Genivida™, a food grade genistein, and Bonistein®, a pharmaceutical grade genistein, were obtained from a commercial supplier (DSM, http://www.dsm.com/corporate/home.html) and subjected to particle size analysis. […] FIG. 1 and FIG. 2 illustrate the PSD of the Genivida™ and Bonistein® materials as supplied from DSM.
The Genivida™ and Bonistein® materials were dispersed within the olive oil to provide a suspension composition that included 25% (w/v) genistein. Several samples ≈200 ml per sample) of the 25% w/v genistein/olive oil suspension were divided and milled using a, MiniCer® nanomill from Netzsch. The samples containing Bonistein® were milled for 60 minutes in a 0.3 mm YTZ media (yttria stabilized zirconium oxide (ZrO2) beads). Samples containing Genivida™ were milled for 60 minutes in a 0.5 mm YTZ media.
A selection of the samples containing Genivida™ were subjected to a pre-milling process (referred to or labeled as “pre-grind” samples). The pre-milling process also utilized a MiniCer® nanomill from Netzsch with YTZ milling media. However, the milling media utilized in the pre-milling step was 1.25 mm YTZ media. Pre-milling was carried out for 20 minutes, with the purpose of reducing the D(0.50) particle size of the Genivida™ to below 10 μm. After pre-milling, those samples subjected to the pre-milling procedure were milled in a MiniCer® nanomill for 60 minutes in a 0.3 mm YTZ media.
After the milling steps, particle size analysis was completed for each sample. […]

[2] = Particle size stability of genistein/olive oil nanosuspensions stored at ambient temperature (laser diffraction and TEM); assay type: physicochemical; details: suspended in olive oil, glass vials
Description: After the milling steps, particle size analysis was completed for each sample. […] An amount of each nanosuspension composition was aliquoted into 3.7 cc glass vials, which were then stored at ambient temperature.
At approximately two months, samples were taken from each vial and subjected to laser diffraction particle size analysis and TEM analysis.
At the 3-month time point, a sample of each nanosuspension was taken from each vial and again subjected to laser diffraction particle size analysis and TEM analysis. Even after three months, the genistein material suspended in the olive oil remained nano-sized, with the D(0.50) at 3 months in all cases being <300 nm (see, FIGS. 3A-3C).
For each of the samples at each time point, particle size analysis conducted by laser diffraction was carried out using a LA-950 particle size analyzer from Horiba Scientific, Edison, N.J.

Row | particle size distribution (PSD) after milling [1] | D(0.50) particle size [1] [μm] | D(0.50) at 3 months ([2]; 3 months, all samples) [nm] | particle size distribution (PSD) after storage ([2]; approximately two months, laser diffraction and TEM) | SMILES
1 | nanoparticulate PSD | 10.7 | – | – | O=c1c(-c2ccc(O)cc2)coc2cc(O)cc(O)c12 [Bonistein®]
2 | nanoparticulate PSD | 29.5 | – | – | O=c1c(-c2ccc(O)cc2)coc2cc(O)cc(O)c12 [Genivida™]
3 | – | – | < 300 | maintained a nanoparticulate PSD | O=c1c(-c2ccc(O)cc2)coc2cc(O)cc(O)c12 [genistein, 5,7-dihydroxy-3-(4-hydroxyphenyl)-chromen-4-one]
